Experimental data taken from paper PMC10854447 (Journal of Enzyme Inhibition and Medicinal Chemistry, 2024).

Legend:
Caspase-3 = Caspase-3 activation assay; assay type: cell-based, human; settings: A-594 cancer cell line; for Caspase-3 Fold change: vs untreated control cells
Bax = Bax level assay; assay type: cell-based, human; settings: A-594 cancer cell line; for Bax Fold change: vs untreated control
Bcl-2 = Bcl-2 level assay; assay type: cell-based, human; settings: A-594 cancer cell line; for Bcl-2 Fold reduction: vs untreated control
Cell viability assay = assay type: cell-based; settings: human, MCF-10A normal mammary gland epithelial cells
EGFR = EGFR (Homo sapiens, UniProt P00533); assay: EGFR inhibitory assay; assay type: biochemical
VEGFR-2 = VEGFR-2 (Homo sapiens, UniProt P35968); assay: VEGFR-2 inhibitory assay; assay type: biochemical; settings: VEGFR-2 inhibition IC50 ± SEM
[1] = system: lung cancer (A-549) cell line; assay: cells; settings: Homo sapiens, A549, read-out: Antiproliferative activity IC50 ± SEM, A-549
[2] = system: breast cancer (MCF-7) cell line; assay: cells; settings: Homo sapiens, MCF7, read-out: Antiproliferative activity IC50 ± SEM, MCF-7
[3] = system: pancreatic cancer (Panc-1) cell line; assay: cells; settings: Homo sapiens, PANC-1, read-out: Antiproliferative activity IC50 ± SEM, Panc-1
[4] = system: colon cancer (HT-29) cell line; assay: cells; settings: Homo sapiens, HT-29, read-out: Antiproliferative activity IC50 ± SEM, HT-29
[5] = system: four cancer cell lines (A-549, MCF-7, Panc-1, HT-29); assay: Antiproliferative assay, average over the four cancer cell lines; settings: for fold less potent than the reference Erlotinib (GI50): GI50 ratio vs Erlotinib
Caspase-8 = Caspase-8 level assay; assay type: cell-based, human; settings: A-594 cancer cell line; for Caspase-8 Fold change: vs untreated control
[6] = system: panel of four cancer cell lines; settings: read-out: GI50 against four cancer cell lines; cited from earlier work

Chain of EGFR (P00533 669-1210): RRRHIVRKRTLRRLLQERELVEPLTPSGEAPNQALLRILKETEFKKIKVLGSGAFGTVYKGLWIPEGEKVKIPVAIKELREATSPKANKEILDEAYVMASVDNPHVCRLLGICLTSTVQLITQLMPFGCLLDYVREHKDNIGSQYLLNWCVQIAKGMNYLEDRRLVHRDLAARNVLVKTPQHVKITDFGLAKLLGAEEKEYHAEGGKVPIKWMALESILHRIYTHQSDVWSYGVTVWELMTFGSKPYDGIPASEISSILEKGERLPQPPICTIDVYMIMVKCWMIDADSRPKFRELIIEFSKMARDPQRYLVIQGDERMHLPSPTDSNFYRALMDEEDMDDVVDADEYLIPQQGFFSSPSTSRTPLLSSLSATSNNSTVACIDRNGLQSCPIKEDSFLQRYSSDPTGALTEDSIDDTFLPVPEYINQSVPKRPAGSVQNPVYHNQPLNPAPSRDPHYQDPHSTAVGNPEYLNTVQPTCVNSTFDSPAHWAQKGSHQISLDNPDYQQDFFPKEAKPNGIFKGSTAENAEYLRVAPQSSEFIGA
Chain of VEGFR-2 (P35968 20-1356): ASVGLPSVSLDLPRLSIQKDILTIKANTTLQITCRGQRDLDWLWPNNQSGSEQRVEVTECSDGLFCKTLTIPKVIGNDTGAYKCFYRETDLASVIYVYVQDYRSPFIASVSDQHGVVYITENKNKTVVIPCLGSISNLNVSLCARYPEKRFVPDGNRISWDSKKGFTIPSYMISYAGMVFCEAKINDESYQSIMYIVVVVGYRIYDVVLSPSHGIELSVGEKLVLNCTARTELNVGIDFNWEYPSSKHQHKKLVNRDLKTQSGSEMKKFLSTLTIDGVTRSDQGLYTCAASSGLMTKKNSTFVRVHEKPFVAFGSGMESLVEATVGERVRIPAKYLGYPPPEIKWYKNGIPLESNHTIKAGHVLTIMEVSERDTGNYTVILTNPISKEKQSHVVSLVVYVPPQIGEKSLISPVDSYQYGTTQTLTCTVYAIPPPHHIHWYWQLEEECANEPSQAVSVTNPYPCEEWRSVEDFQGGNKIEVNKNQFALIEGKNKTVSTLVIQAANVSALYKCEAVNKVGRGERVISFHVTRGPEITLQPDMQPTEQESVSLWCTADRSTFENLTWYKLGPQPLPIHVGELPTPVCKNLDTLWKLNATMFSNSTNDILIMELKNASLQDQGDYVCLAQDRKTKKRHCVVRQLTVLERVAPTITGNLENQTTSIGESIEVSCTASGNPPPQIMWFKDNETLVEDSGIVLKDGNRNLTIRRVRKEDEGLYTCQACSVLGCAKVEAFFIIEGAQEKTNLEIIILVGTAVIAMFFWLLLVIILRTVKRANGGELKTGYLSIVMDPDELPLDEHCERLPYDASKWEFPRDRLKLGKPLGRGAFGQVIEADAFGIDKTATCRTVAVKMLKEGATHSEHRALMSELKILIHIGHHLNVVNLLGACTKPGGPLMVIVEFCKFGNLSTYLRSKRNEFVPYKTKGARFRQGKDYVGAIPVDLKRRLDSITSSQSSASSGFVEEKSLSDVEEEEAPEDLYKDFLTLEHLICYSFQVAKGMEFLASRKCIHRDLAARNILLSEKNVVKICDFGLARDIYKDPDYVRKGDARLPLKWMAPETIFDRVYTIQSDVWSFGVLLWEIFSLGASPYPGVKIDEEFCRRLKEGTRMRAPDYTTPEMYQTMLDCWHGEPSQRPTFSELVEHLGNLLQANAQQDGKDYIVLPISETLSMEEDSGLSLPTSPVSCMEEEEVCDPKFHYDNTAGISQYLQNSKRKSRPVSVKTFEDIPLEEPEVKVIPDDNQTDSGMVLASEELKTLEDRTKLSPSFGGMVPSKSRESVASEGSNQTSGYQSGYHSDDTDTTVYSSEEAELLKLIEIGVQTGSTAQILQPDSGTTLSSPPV

| SMILES | IC50 (EGFR) | IC50 (VEGFR-2) | IC50 [1] | IC50 [2] | IC50 [3] | IC50 [4] | fold less potent than the 1-naphthyl derivative 7m (GI50) ([5]; GI50 ratio vs 7m) | fold less potent than the reference Erlotinib (GI50) [5] | fold less active than the 3-halo-substituted derivatives 7i and 7h (GI50) ([5]; GI50 ratio vs 7i and 7h) | Caspase-3 Conc (Caspase-3) | Bax Conc (Bax) | Bcl-2 Conc (Bcl-2) | viability at 4 days, 50 µM (Cell viability assay) | Caspase-3 Fold change (Caspase-3) | Caspase-8 Conc (Caspase-8) | Caspase-8 Fold change (Caspase-8) | Bax Fold change (Bax) | Bcl-2 Fold reduction (Bcl-2) | GI50 [6] |
| --- | --- | --- | --- | --- | --- | --- | --- | --- | --- | --- | --- | --- | --- | --- | --- | --- | --- | --- | --- |
| CN[C@@H]1C[C@H]2O[C@@](C)([C@@H]1OC)n1c3ccccc3c3c4c(c5c6ccccc6n2c5c31)C(=O)NC4 [Staurosporine, reference compound] | – | – | – | – | – | – | – | – | – | 465 ± 4 pg/mL | 288 pg/mL | 1.00 ng/mL | – | – | – | – | – | – | – |
| Clc1cccc(-c2noc(Cn3cc(-c4ccccc4)nn3)n2)c1 [Compound 7h, 3-(3-Chlorophenyl)-5-[(4-phenyl-1H-1,2,3-triazol-1-yl)methyl]-1,2,4-oxadiazole] | 105 ± 10 nM | 6.9 ± 0.07 nM | 40 ± 4 nM | 44 ± 4 nM | 40 ± 4 nM | 42 ± 4 nM | – | – | – | – | – | – | 90% | – | – | – | – | – | – |
| COc1ccc(-c2noc(Cn3cc(-c4ccccc4)nn3)n2)cc1 [Compound 7f, 3-(4-Methoxyphenyl)-5-[(4-phenyl-1H-1,2,3-triazol-1-yl)methyl]-1,2,4-oxadiazole] | – | – | 48 ± 4 nM | 51 ± 5 nM | 48 ± 4 nM | 46 ± 4 nM | – | – | – | – | – | – | 90% | – | – | – | – | – | – |
| c1ccc(-c2cn(Cc3nc(-c4ccc5ccccc5c4)no3)nn2)cc1 [Compound 7n, 3-(Naphthalen-2-yl)-5-[(4-phenyl-1H-1,2,3-triazol-1-yl)methyl]-1,2,4-oxadiazole] | – | – | 68 ± 6 nM | 74 ± 7 nM | 70 ± 7 nM | 72 ± 7 nM | 1.7 fold | 2.4 fold | – | – | – | – | 89% | – | – | – | – | – | – |
| c1ccc(-c2cn(Cc3nc(-c4ccc5c(c4)OCO5)no3)nn2)cc1 [Compound 7o, 3-(2H-1,3-Benzodioxol-5-yl)-5-[(4-phenyl-1H-1,2,3-triazol-1-yl)methyl]-1,2,4-oxadiazole] | – | – | 74 ± 7 nM | 80 ± 8 nM | 78 ± 7 nM | 76 ± 7 nM | – | – | – | – | – | – | 91% | – | – | – | – | – | – |
| Brc1ccc(-c2noc(Cn3cc(-c4ccccc4)nn3)n2)cc1 [Compound 7d, 3-(4-Bromophenyl)-5-[(4-phenyl-1H-1,2,3-triazol-1-yl)methyl]-1,2,4-oxadiazole] | – | – | 80 ± 8 nM | 84 ± 8 nM | 80 ± 8 nM | 82 ± 8 nM | – | – | – | – | – | – | 88% | – | – | – | – | – | – |
| c1ccc(-c2cn(Cc3nc(-c4cccc5ccccc45)no3)nn2)cc1 [Compound 7m, 3-(Naphthalen-1-yl)-5-[(4-phenyl-1H-1,2,3-triazol-1-yl)methyl]-1,2,4-oxadiazole] | – | – | 42 ± 4 nM | 48 ± 4 nM | 46 ± 4 nM | 44 ± 4 nM | – | 1.4 fold | – | – | – | – | 87% | – | – | – | – | – | – |
| COc1ccc(-c2noc(Cn3cc(-c4ccccc4)nn3)n2)cc1OC [Compound 7k, 3-(3,4-Dimethoxyphenyl)-5-[(4-phenyl-1H-1,2,3-triazol-1-yl)methyl]-1,2,4-oxadiazole] | 82 ± 7 nM | 3.8 ± 0.03 nM | 30 ± 3 nM | 35 ± 3 nM | 32 ± 3 nM | 32 ± 3 nM | – | – | – | 530 ± 5 pg/mL | 310 pg/mL | 0.80 ng/mL | 89% | 8 | 2.30 ng/mL | 25 | 34 | 6 | – |
| Fc1ccc(-c2noc(Cn3cc(-c4ccccc4)nn3)n2)cc1 [Compound 7b, 3-(4-Fluorophenyl)-5-[(4-phenyl-1H-1,2,3-triazol-1-yl)methyl]-1,2,4-oxadiazole] | – | – | 102 ± 10 nM | 106 ± 10 nM | 104 ± 10 nM | 104 ± 10 nM | – | – | 2.5 fold | – | – | – | 91% | – | – | – | – | – | – |

Further lines, with some results ahead:

| IC50 (EGFR) | IC50 (VEGFR-2) | IC50 [1] | IC50 [2] | IC50 [3] | IC50 [4] | fold less potent than the 1-naphthyl derivative 7m (GI50) ([5]; GI50 ratio vs 7m) | fold less potent than the reference Erlotinib (GI50) [5] | fold less active than the 3-halo-substituted derivatives 7i and 7h (GI50) ([5]; GI50 ratio vs 7i and 7h) | SMILES | Caspase-3 Conc (Caspase-3) | Bax Conc (Bax) | Bcl-2 Conc (Bcl-2) | viability at 4 days, 50 µM (Cell viability assay) | Caspase-3 Fold change (Caspase-3) | Caspase-8 Conc (Caspase-8) | Caspase-8 Fold change (Caspase-8) | Bax Fold change (Bax) | Bcl-2 Fold reduction (Bcl-2) | GI50 [6] |
| --- | --- | --- | --- | --- | --- | --- | --- | --- | --- | --- | --- | --- | --- | --- | --- | --- | --- | --- | --- |
| – | 4.7 nM | 26 ± 2 nM | 30 ± 3 nM | 28 ± 2 nM | 28 ± 2 nM | – | – | – | COc1cc(-c2noc(Cn3cc(-c4ccccc4)nn3)n2)cc(OC)c1OC [Compound 7l, 3-(3,4,5-Trimethoxyphenyl)-5-[(4-phenyl-1H-1,2,3-triazol-1-yl)methyl]-1,2,4-oxadiazole] | 587 ± 5 pg/mL | 362 pg/mL | 0.60 ng/mL | 88% | 9 | 2.55 ng/mL | 28 | 40 | 8 | – |
| 89 ± 8 nM | 4.7 ± 0.04 nM | 33 ± 3 nM | 36 ± 3 nM | 34 ± 3 nM | 36 ± 3 nM | – | – | – | Clc1ccc(-c2noc(Cn3cc(-c4ccccc4)nn3)n2)c(Cl)c1 [Compound 7j, 3-(2,4-Dichlorophenyl)-5-[(4-phenyl-1H-1,2,3-triazol-1-yl)methyl]-1,2,4-oxadiazole] | 460 ± 4 pg/mL | 291 pg/mL | 0.95 ng/mL | 91% | 7.0 | 2.00 ng/mL | 22 | 32 | 5 | – |
| – | – | 30 ± 3 nM | 40 ± 3 nM | 30 ± 3 nM | 30 ± 3 nM | – | – | – | C#Cc1cccc(Nc2ncnc3cc(OCCOC)c(OCCOC)cc23)c1 [Erlotinib, reference compound] | – | – | – | – | – | – | – | – | – | 33 nM |
| – | – | 66 ± 6 nM | 68 ± 6 nM | 68 ± 6 nM | 66 ± 6 nM | – | – | – | FC(F)(F)c1ccc(-c2noc(Cn3cc(-c4ccccc4)nn3)n2)cc1 [Compound 7g, 3-(4-Trifluoromethylphenyl)-5-[(4-phenyl-1H-1,2,3-triazol-1-yl)methyl]-1,2,4-oxadiazole] | – | – | – | 87% | – | – | – | – | – | – |
| – | – | 94 ± 9 nM | 98 ± 9 nM | 96 ± 9 nM | 96 ± 9 nM | – | 3 fold | – | c1ccc(-c2cn(Cc3nc(-c4ccccc4)no3)nn2)cc1 [Compound 7a, 3-Phenyl-5-[(4-phenyl-1H-1,2,3-triazol-1-yl)methyl]-1,2,4-oxadiazole] | – | – | – | 90% | – | – | – | – | – | – |
| 97 ± 9 nM | 5.5 ± 0.05 nM | 36 ± 3 nM | 39 ± 3 nM | 37 ± 3 nM | 37 ± 3 nM | – | – | – | Brc1cccc(-c2noc(Cn3cc(-c4ccccc4)nn3)n2)c1 [Compound 7i, 3-(3-Bromophenyl)-5-[(4-phenyl-1H-1,2,3-triazol-1-yl)methyl]-1,2,4-oxadiazole] | – | – | – | 89% | – | – | – | – | – | – |
| – | – | 87 ± 8 nM | 94 ± 9 nM | 90 ± 9 nM | 92 ± 9 nM | – | – | – | Clc1ccc(-c2noc(Cn3cc(-c4ccccc4)nn3)n2)cc1 [Compound 7c, 3-(4-Chlorophenyl)-5-[(4-phenyl-1H-1,2,3-triazol-1-yl)methyl]-1,2,4-oxadiazole] | – | – | – | 89% | – | – | – | – | – | – |
| – | – | 98 ± 9 nM | 102 ± 9 nM | 100 ± 10 nM | 102 ± 10 nM | – | 3 fold | – | Cc1ccc(-c2noc(Cn3cc(-c4ccccc4)nn3)n2)cc1 [Compound 7e, 3-(4-Methylphenyl)-5-[(4-phenyl-1H-1,2,3-triazol-1-yl)methyl]-1,2,4-oxadiazole] | – | – | – | 91% | – | – | – | – | – | – |
